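Dose response: 5 concentrations. Exposure: 48 h. Format: 96-well plates. Endpoint: linear interpolation; highest concentration if not reached. GI50 is the concentration that inhibits growth by half. TGI denotes the concentration required for complete inhibition of growth.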
What was measured:
Assay in all cases: NCI anticancer screen, dose series, 48 h
[1] = test system: SW-620 colon
[2] = test system: K-562 leukemia
[3] = test system: A549 NSCLC
[4] = test system: U251 CNS
[5] = test system: PC-3 prostate
[6] = test system: SNB-19 CNS
[7] = test system: SF-295 CNS
[8] = test system: KM12 colon
[9] = test system: SNB-75 CNS
[10] = test system: M14 melanoma
[11] = test system: SF-539 CNS
[12] = test system: OVCAR-8 ovarian
[13] = test system: SK-MEL-28 melanoma
[14] = test system: MDA-MB-435
[15] = test system: NCI-H226 lung
[16] = test system: SR leukemia
[17] = test system: OVCAR-5 ovarian
[18] = test system: COLO 205 colon
[19] = test system: A498 renal
[20] = test system: MOLT-4 leukemia
[21] = test system: SK-MEL-2 melanoma
[22] = test system: NCI-H460 lung
[23] = test system: HOP-92 NSCLC
[24] = test system: MCF7 breast
[25] = test system: SK-MEL-5 melanoma
[26] = test system: HOP-62 NSCLC
[27] = test system: IGROV1 ovarian
[28] = test system: NCI-H23 lung
[29] = test system: HT29 colon
[30] = test system: UACC-257 melanoma
[31] = test system: MDA-MB-231 breast
[32] = test system: LOX IMVI melanoma
[33] = test system: ACHN renal
[34] = test system: BT-549 breast
[35] = test system: CCRF-CEM leukemia
[36] = test system: SN12C renal
[37] = test system: SF-268 CNS
[38] = test system: UO-31 renal
[39] = test system: EKVX NSCLC
[40] = test system: OVCAR-4 ovarian
[41] = test system: RPMI-8226 leukemia
[42] = test system: CAKI-1 renal
[43] = test system: NCI/ADR-RES ovarian
[44] = test system: HCT-15 colon
[45] = test system: NCI-H522 lung
[46] = test system: HCT-116 colon
[47] = test system: RXF 393 renal
[48] = test system: HL-60(TB) leukemia
[49] = test system: HCC-2998 colon
[50] = test system: DU-145 prostate
[51] = test system: UACC-62 melanoma
[52] = test system: 786-0 renal
[53] = test system: SK-OV-3 ovarian
[54] = test system: HS 578T breast
[55] = test system: OVCAR-3 ovarian
[56] = test system: TK-10 renal

CCN1C(=O)N(CC)C2SC(N/N=C/c3ccccc3)=NC21 (centres undefined)
GI50 [1]: 394 nM | TGI [1]: > 100000 nM | GI50 [2]: 215 nM | TGI [2]: > 100000 nM | GI50 [3]: 606 nM | TGI [3]: > 100000 nM | GI50 [4]: 343 nM | TGI [4]: > 100000 nM | GI50 [5]: 359 nM | TGI [5]: > 100000 nM | GI50 [6]: 468 nM | TGI [6]: > 100000 nM | GI50 [7]: 282 nM | TGI [7]: > 71600 nM | GI50 [8]: 148 nM | TGI [8]: > 100000 nM | GI50 [9]: 173 nM | GI50 [10]: 234 nM | TGI [10]: 4670 nM | GI50 [11]: 232 nM | TGI [11]: 683 nM | GI50 [12]: 473 nM | TGI [12]: > 100000 nM | GI50 [13]: 1680 nM | TGI [13]: > 100000 nM | GI50 [14]: 84.8 nM | TGI [14]: 317 nM | GI50 [15]: 754 nM | TGI [15]: > 100000 nM | GI50 [16]: 194 nM | TGI [16]: > 100000 nM | GI50 [17]: 521 nM | TGI [17]: > 100000 nM | GI50 [18]: 300 nM | TGI [18]: 945 nM | GI50 [19]: 227 nM | TGI [19]: 785 nM | GI50 [20]: 502 nM | TGI [20]: > 100000 nM | GI50 [21]: 317 nM | TGI [21]: > 100000 nM | GI50 [22]: 367 nM | TGI [22]: > 34200 nM | GI50 [23]: 2780 nM | TGI [23]: > 30300 nM | GI50 [24]: 301 nM | TGI [24]: > 100000 nM | GI50 [25]: 614 nM | TGI [25]: 22700 nM | GI50 [26]: 567 nM | TGI [26]: > 100000 nM | GI50 [27]: 622 nM | TGI [27]: > 100000 nM | GI50 [28]: 474 nM | TGI [28]: > 100000 nM | GI50 [29]: 320 nM | TGI [29]: > 100000 nM | TGI [30]: > 100000 nM | GI50 [31]: 656 nM | TGI [31]: > 100000 nM | GI50 [32]: 572 nM | TGI [32]: > 100000 nM | GI50 [33]: 943 nM | TGI [33]: > 100000 nM | GI50 [34]: 464 nM | TGI [34]: 2300 nM | GI50 [35]: 342 nM | TGI [35]: > 100000 nM | GI50 [36]: 557 nM | TGI [36]: > 100000 nM | GI50 [37]: 3410 nM | TGI [37]: > 100000 nM | GI50 [38]: 718 nM | TGI [38]: > 100000 nM | GI50 [39]: 583 nM | TGI [39]: > 100000 nM | GI50 [40]: > 88900 nM | TGI [40]: > 100000 nM | GI50 [41]: 381 nM | TGI [41]: > 100000 nM | GI50 [42]: 403 nM | TGI [42]: > 100000 nM | GI50 [43]: 327 nM | TGI [43]: > 36100 nM | GI50 [44]: 349 nM | TGI [44]: > 100000 nM | GI50 [45]: 210 nM | TGI [45]: 735 nM | GI50 [46]: 371 nM | TGI [46]: 19800 nM | GI50 [47]: 171 nM | TGI [47]: 503 nM | GI50 [48]: 257 nM | TGI [48]: 932 nM | GI50 [49]: 564 nM | TGI [49]: 34000 nM | GI50 [50]: 441 nM | TGI [50]: > 100000 nM | GI50 [51]: 390 nM | TGI [51]: > 100000 nM | GI50 [52]: 583 nM | TGI [52]: 44500 nM | GI50 [53]: 614 nM | TGI [53]: > 100000 nM | GI50 [54]: 312 nM | TGI [54]: > 100000 nM | GI50 [55]: 395 nM | TGI [55]: > 100000 nM | TGI [56]: > 100000 nM

Source: PubChem BioAssay (NCI)
